In publication PMC8041284, “Tunable Methacrylamides for Covalent Ligand Directed Release Chemistry” (Journal of the American Chemical Society, 2021):

These molecules were tested against BTK (Homo sapiens, UniProt Q06187). Settings: 0.75 uM BTK, […] probe 3l, 15 min preincubation, 10 µM, inhibitor, BTK inhibition (%).
BTK, sequence (Q06187 402-655 limits assumed): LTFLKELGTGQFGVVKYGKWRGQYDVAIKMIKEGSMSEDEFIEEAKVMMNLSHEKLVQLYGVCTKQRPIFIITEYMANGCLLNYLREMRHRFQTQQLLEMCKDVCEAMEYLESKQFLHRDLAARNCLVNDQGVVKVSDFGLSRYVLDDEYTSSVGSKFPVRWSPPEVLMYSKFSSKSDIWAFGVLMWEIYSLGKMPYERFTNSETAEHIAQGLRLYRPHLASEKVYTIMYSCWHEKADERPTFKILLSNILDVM

Going from `Cc1ccccc1C(=O)Nc1ccc(C(=O)N2CCCC(N(C)C)c3ccccc32)cc1` (centres unmarked) [PCM-0095419] to `CN1C2=C3N=c4ccccc4=C3CCN2C(=O)c2ccccc21` [PCM-0215051], the “BTK inhibition (%)” value rises from -13.6% to 4.7%.

First: Cc1ccccc1C(=O)Nc1ccc(C(=O)N2CCCC(N(C)C)c3ccccc32)cc1 (centres unmarked) [PCM-0095424]
Second: CCC(=O)NS(=O)(=O)c1ccc(-c2c(-c3ccccc3)noc2C)cc1 [PCM-0214825]
The “BTK inhibition (%)” value of the first is higher: 70% for the first, 5.5% for the second.

Compared with `COc1ccc2[nH]c([S@@+]([O-])Cc3ncc(C)c(OC)c3C)nc2c1` [PCM-0214571], `Cc1cc(NS(=O)(=O)c2ccc(N)cc2)no1` [PCM-0215124] is higher in “BTK inhibition (%)” value: -13.2% for the first, 7% for the second.

First: CO/N=C(\C(=O)N[C@@H]1C(=O)N2C(C(=O)O)=C(CSC(=O)c3ccco3)CS[C@H]12)c1csc(N)n1 [PCM-0214692]
Second: Nc1nc2[nH]cc(CCc3ccc(C(=O)N[C@@H](CCC(=O)O)C(=O)O)cc3)c2c(=O)[nH]1 [PCM-0215446]
The “BTK inhibition (%)” value of the first is higher: 0% for the first, -10.2% for the second.

Compared with `CC[C@H]1OC(=O)[C@H](C)[C@@H](O[C@H]2C[C@@](C)(OC)[C@@H](O)[C@H](C)O2)[C@H](C)[C@@H](O[C@@H]2O[C@H](C)C[C@H](N(C)C)[C@H]2O)[C@](C)(O)C[C@@H](C)C(=O)[C@H](C)[C@@H](O)[C@]1(C)O` [PCM-0214693], `CC[C@H]1OC(=O)[C@H](C)[C@@H](O[C@H]2C[C@@](C)(OC)[C@@H](O)[C@H](C)O2)[C@H](C)[C@@H](O[C@@H]2O[C@H](C)C[C@H](N(C)C)[C@H]2O)[C@](C)(O)C[C@@H](C)CN(C)[C@H](C)[C@@H](O)[C@]1(C)O` [PCM-0214754] is lower in “BTK inhibition (%)” value: 5.4% for the first, 1.6% for the second.

First: CC(C(=O)O)c1cccc(Oc2ccccc2)c1 (centres unmarked) [PCM-0214813]
Second: CC(=O)Oc1ccccc1C(=O)O [PCM-0214911]
The “BTK inhibition (%)” value of the first is higher: 4.8% for the first, 1.6% for the second.

First: COc1ccc2[nH]c([S@@+]([O-])Cc3ncc(C)c(OC)c3C)nc2c1 [PCM-0214815]
Second: Nc1ccc(S(=O)(=O)Nc2ncccn2)cc1 [PCM-0214831]
The “BTK inhibition (%)” value of the first is lower: -10.9% for the first, 10.9% for the second.

First: CC1(C)[C@@H](O[C@H]2O[C@H](C(=O)O)[C@@H](O)[C@H](O)[C@H]2O[C@@H]2O[C@H](C(=O)O)[C@@H](O)[C@H](O)[C@H]2O)CC[C@]2(C)[C@H]3C(=O)C=C4[C@@H]5C[C@@](C)(C(=O)O)CC[C@]5(C)CC[C@@]4(C)[C@]3(C)CC[C@@H]12 [PCM-0214876]
Second: C=C[C@]1(C)C[C@@H](OC(=O)CSCCN(CC)CC)[C@]2(C)[C@H](C)CC[C@]3(CCC(=O)[C@H]32)[C@@H](C)[C@@H]1O [PCM-0215106]
The “BTK inhibition (%)” value of the first is higher: 35.9% for the first, -8.5% for the second.

Going from `N[C@@H](C=O)[C@@H](O)[C@H](O)[C@H](O)CO` [PCM-0214928] to `C[C@H](O)[C@H](O)[C@@H](O)[C@@H](O)C=O` [PCM-0214991], the “BTK inhibition (%)” value falls from -6.2% to -11.7%.

First: C[C@H](CCC(=O)NCCS(=O)(=O)O)[C@H]1CC[C@H]2[C@@H]3[C@@H](O)C[C@@H]4C[C@H](O)CC[C@]4(C)[C@H]3CC[C@]12C [PCM-0214942]
Second: CCCC(CCC)C(=O)O [PCM-0215159]
The “BTK inhibition (%)” value of the first is lower: 4.7% for the first, 6.9% for the second.

Going from `N[C@@H](C=O)[C@@H](O)[C@H](O)[C@H](O)CO` [PCM-0215073] to `O=C1O[C@H]([C@@H](O)CO)C(O)=C1O` [PCM-0215215], the “BTK inhibition (%)” value falls from -2.8% to -6.8%.

Going from `C[C@@H]1O[C@@H]1P(=O)(O)O` [PCM-0215255] to `O=C(Nc1ccc2c(O)cc(S(=O)(=O)O)cc2c1)Nc1ccc2c(O)cc(S(=O)(=O)O)cc2c1` [PCM-0215497], the “BTK inhibition (%)” value rises from -21% to 21.6%.

Same assay, conditions: 0.75 uM BTK, […] probe 3l, 15 min preincubation; 10 µM; inhibitor

Going from `C[N+]1(C)[C@@H]2CC(OC(=O)[C@H](CO)c3ccccc3)C[C@H]1[C@@H]1O[C@@H]12` (some centres unmarked) [PCM-0095246] to `CC(C)[N+]1(C)[C@@H]2CC[C@H]1CC(OC(=O)C(CO)c1ccccc1)C2` (some centres unmarked) [PCM-0214646], the “BTK inhibition (%)” value falls from 10.9% to -24.9%.

Going from `C[N+]1(C)[C@@H]2CC(OC(=O)C(O)(c3cccs3)c3cccs3)C[C@H]1[C@@H]1O[C@@H]12` (some centres unmarked) [PCM-0095323] to `O=C(O[C@H]1C[N+]2(CCCOc3ccccc3)CCC1CC2)C(O)(c1cccs1)c1cccs1` [PCM-0214751], the “BTK inhibition (%)” value falls from -5.4% to -24.1%.

First: O=C(OC1C[C@H]2CC[C@@H](C1)[N+]21CCCC1)C(O)(c1ccccc1)c1ccccc1 (some centres unmarked) [PCM-0095326]
Second: CCN(CC)CCOC(=O)C(O)(c1ccccc1)c1ccccc1 [PCM-0214873]
The “BTK inhibition (%)” value of the first is lower: 7% for the first, 8.6% for the second.

Going from `CN[C@H]1C[C@@H](N)[C@H](O)[C@@H](O[C@@H]2O[C@H](CO)[C@H](O)[C@@H]3OC4(O[C@H]23)O[C@H]([C@@H](N)CO)[C@H](O)[C@H](O)[C@H]4O)[C@@H]1O` (some centres unmarked) [PCM-0095389] to `C[C@@H]1CC[C@@]2(OC1)O[C@H]1C[C@H]3[C@@H]4CC=C5C[C@@H](O[C@@H]6O[C@H](CO)[C@@H](O[C@@H]7O[C@@H](C)[C@H](O)[C@@H](O)[C@H]7O)[C@H](O)[C@H]6O[C@@H]6O[C@@H](C)[C@H](O)[C@@H](O)[C@H]6O)CC[C@]5(C)[C@H]4CC[C@]3(C)[C@H]1[C@@H]2C` [PCM-0214660], the “BTK inhibition (%)” value rises from 0% to 38.1%.

Compared with `CCOC(=O)C1=C[C@@H](OC(CC)CC)[C@H](NC(C)=O)[C@@H](N)C1` [PCM-0095436], `CC(=O)N1C[C@H](O)C[C@H]1C(=O)O` [PCM-0215090] is higher in “BTK inhibition (%)” value: -10.2% for the first, 8.6% for the second.

Compared with `O=C(O[C@H]1CN2CCC1CC2)N1CCc2ccccc2[C@@H]1c1ccccc1` [PCM-0095538], `CC(=O)OC1CN2CCC1CC2` (centres unmarked) [PCM-0215275] is higher in “BTK inhibition (%)” value: -27.2% for the first, 4.7% for the second.

Going from `CN1[C@@H]2CC[C@H]1CC(OC(=O)[C@H](CO)c1ccccc1)C2` (some centres unmarked) [PCM-0095561] to `COC(=O)Nc1nc2ccccc2[nH]1` [PCM-0214885], the “BTK inhibition (%)” value rises from -14.8% to -9.3%.

First: CC1=C(O)C(=O)C=C2C1=CC=C1[C@@]2(C)CC[C@@]2(C)[C@@H]3C[C@](C)(C(=O)O)CC[C@]3(C)CC[C@]12C [PCM-0214611]
Second: CC(C)=CCC[C@]1(C)C=Cc2c(O)c3c(c(CC=C(C)C)c2O1)O[C@]12C(=C[C@@H]4C[C@H]1C(C)(C)O[C@@]2(C/C=C(/C)C(=O)O)C4=O)C3=O [PCM-0214728]
The “BTK inhibition (%)” value of the first is higher: 67.7% for the first, -1.6% for the second.

Going from `CC(=O)O[C@H]1C[C@@H]2CC[C@@H]3[C@H](CC[C@@]4(C)[C@H]3C[C@H]([N+]3(C)CCCCC3)[C@@H]4OC(C)=O)[C@@]2(C)C[C@@H]1N1CCCCC1` [PCM-0214623] to `CC(=O)O[C@H]1C[C@@H]2CC[C@@H]3[C@H](CC[C@@]4(C)[C@H]3C[C@H]([N+]3(C)CCCCC3)[C@@H]4OC(C)=O)[C@@]2(C)C[C@@H]1[N+]1(C)CCCCC1` [PCM-0214687], the “BTK inhibition (%)” value falls from -6.2% to -21%.

Going from `CC(C)[C@]12O[C@H]1[C@@H]1O[C@]13[C@]1(O[C@H]1C[C@H]1C4=C(CC[C@@]13C)C(=O)OC4)[C@@H]2O` [PCM-0214731] to `C[C@@H]1O[C@@H](O[C@H]2C[C@@H](O)[C@]3(CO)[C@H]4[C@H](O)C[C@]5(C)[C@@H](C6=CC(=O)OC6)CC[C@]5(O)[C@@H]4CC[C@]3(O)C2)[C@H](O)[C@H](O)[C@H]1O` [PCM-0214805], the “BTK inhibition (%)” value falls from 6.2% to -5.4%.

Compared with `CCN(Cc1ccc(Cl)nc1)/C(=C/[N+](=O)[O-])NC` [PCM-0214807], `CC(C)OC(=O)[C@H](C)N[P@](=O)(CO[C@H](C)Cn1cnc2c(N)ncnc21)Oc1ccccc1` [PCM-0215482] is lower in “BTK inhibition (%)” value: 7% for the first, -3.1% for the second.

Compared with `CC[N+](C)(CC)CCOC(=O)C(O)(c1ccccc1)c1ccccc1` [PCM-0214829], `O=C(/C=C/c1ccccc1)OC[C@H]1O[C@@H](O[C@@H]2OC=C[C@H]3[C@H](O)[C@@H]4O[C@]4(CO)[C@@H]23)[C@H](O)[C@@H](O)[C@@H]1O` [PCM-0214975] is higher in “BTK inhibition (%)” value: -19.5% for the first, -1.6% for the second.

Compared with `C=C(C)[C@H]1Cc2c(ccc3c2O[C@@H]2COc4cc(OC)c(OC)cc4[C@@H]2C3=O)O1` [PCM-0214933], `C=C[C@@H]1C2=CCOC(=O)C2=CO[C@H]1O[C@@H]1O[C@H](CO)[C@@H](O)[C@H](O)[C@H]1O` [PCM-0214971] is lower in “BTK inhibition (%)” value: 6.2% for the first, -0.8% for the second.

Compared with `CN1CCN(C(=O)C2C3CCC(O3)C2C(=O)O)CC1` (centres unmarked) [PCM-0215448], `O=C(O)C1C2CCC(O2)C1C(=O)O` (centres unmarked) [PCM-0215947] is higher in “BTK inhibition (%)” value: -11.1% for the first, -7.7% for the second.

In the case of `O=C/C=C/c1ccccc1` [PCM-0215920], the “BTK inhibition (%)” value is reported as 3.1%.

Same assay, conditions: 10 µM, inhibitor

`COC1=C[C@@H]2[C@@H]3Cc4ccc(OC)c(O)c4[C@]2(CCN3C)CC1=O` [PCM-0214970] was tested, and the “BTK inhibition (%)” value was 0%.

Same assay, conditions: 10 µM; inhibitor

First: CN1CCc2cc3c(cc2[C@H]1[C@@H]1OC(=O)c2c1ccc1c2OCO1)OCO3 [PCM-0095582]
Second: CN1CC=C(c2ccccc2)CC1 [PCM-0214851]
The “BTK inhibition (%)” value of the first is lower: -0.8% for the first, 3.1% for the second.

Compared with `CC(=O)OC(C)(C)/C=C/C(=O)[C@](C)(O)[C@H]1[C@H](O)C[C@@]2(C)[C@@H]3CC=C4[C@@H](C[C@H](O)C(=O)C4(C)C)[C@]3(C)C(=O)C[C@]12C` [PCM-0214542], `Cc1c([C@H](C)[C@@H]2NC[C@@H](C)C[C@H]2O)ccc2c1C[C@H]1[C@H]2CC=C2C[C@@H](O)CC[C@@]21C` [PCM-0214977] is higher in “BTK inhibition (%)” value: -10% for the first, -2.3% for the second.

First: CC1=C2C(=O)[C@H]3[C@@H](CC=C4C[C@@H](O)CC[C@@]43C)[C@@H]2CC[C@]12O[C@@H]1C[C@H](C)CN[C@H]1[C@H]2C [PCM-0214856]
Second: CN[C@H]1[C@H](O)[C@H](O[C@@H]2[C@@H](O)[C@H](O[C@H]3O[C@H](C(C)O)[C@@H](O)[C@H](O)[C@H]3N)[C@@H](N)C[C@H]2N)OC[C@@]1(C)O (some centres unmarked) [PCM-0215175]
The “BTK inhibition (%)” value of the first is lower: -12.5% for the first, 6% for the second.

First: COc1ccc(/C=C/c2cc(OC)cc(OC)c2)cc1 [PCM-0214992]
Second: COc1ccc(C=O)cc1O [PCM-0215127]
The “BTK inhibition (%)” value of the first is higher: 34.2% for the first, -7.8% for the second.

First: CN1C(=O)[C@@]23C[C@]4([C@]56C[C@@]78SS[C@@](CO)(C(=O)N7[C@H]5Nc5ccccc56)N(C)C8=O)c5ccccc5N[C@@H]4N2C(=O)[C@]1(CO)SS3 [PCM-0215602]
Second: Nc1ncnc2c1ccn2[C@@H]1O[C@H](CO)[C@@H](O)[C@H]1O [PCM-0215658]
The “BTK inhibition (%)” value of the first is lower: 5.4% for the first, 10.8% for the second.

`CCCCCc1cc(O)cc(O)c1` [PCM-0215917] was tested, and the “BTK inhibition (%)” value was -13.9%.
